From ChEMBL document CHEMBL1123608, “In vivo antitumor activity of 6-benzyl-1,3-benzodioxole derivatives against the P388, L1210, B16, and M5076 murine models” (1987) come the findings set out here.

Assay [1] in a line: Ability to inhibit the dibutyryl-cAMP-induced change of an immature glioma cell to a mature, differentiated astrocyte by in vitro astrocytoma assay at 100 ug/mL dose (Experiment #1); value may range from 91 to up. It counts as functional, Mus musculus.
Assay [2] is described as follows: Ability to inhibit the dibutyryl-cAMP-induced change of an immature glioma cell to a mature, differentiated astrocyte by in vitro astrocytoma assay at 100 ug/mL dose (Experiment #2)value may range from 71 to 90. It counts as functional, Mus musculus.
Assay [3] can be described thus: Ability to inhibit the dibutyryl-cAMP-induced change of an immature glioma cell to a mature, differentiated astrocyte by in vitro astrocytoma assay at 10 ug/mL dose (Experiment #2); value may range from 31 to 50. It counts as functional, Mus musculus.
Assay [4] can be described thus: Ability to inhibit the dibutyryl-cAMP-induced change of an immature glioma cell to a mature, differentiated astrocyte by in vitro astrocytoma assay at 10 ug/mL dose (Experiment #1); value may range from 31 to 50. The class given is functional, Mus musculus.
Assay [5] in a line: Ability to inhibit the dibutyryl-cAMP-induced change of an immature glioma cell to a mature, differentiated astrocyte by in vitro astrocytoma assay at 1 ug/mL dose (Experiment #2) value may range from 16 to 30. It counts as functional, Mus musculus.
Assay [6] can be described thus: Ability to inhibit the dibutyryl-cAMP-induced change of an immature glioma cell to a mature, differentiated astrocyte by in vitro astrocytoma assay at 1 ug/mL dose (Experiment #1); value may range from 16 to 30. The class given is functional, Mus musculus.
Assay [7] has as its system Mus musculus. Kind of assay: In vivo antitumor activity against the L1210 leukemia cell line expressed as percent increase in life span; IA means inactive. The class given is functional, organism-based.
Assay [8] relates to Mus musculus. Kind of assay: In vivo antitumor activity against the M5076 reticulum cell sarcoma expressed as percent increase in life span; IA means inactive. It counts as functional, organism-based.
Assay [9] concerns Mus musculus. Kind of assay: In vivo antitumor activity against the B16 melanoma cell line expressed as percent increase in life span; IA means inactive. The class given is functional, organism-based.
Assay [10] has as its system Mus musculus. Kind of assay: Percent increase in life span (ILS) was measured on P388 cells which were inoculated intraperitoneally in CD2F1 mice. The class given is functional.
Assay [11] has as its system Mus musculus. Kind of assay: The percent increase in life span on P388 cells which were inoculated intraperitoneally in CD2F1 mice at 100 mg/kg dose placed at ranking order 1. It counts as functional. Particulars: P388, ip, route intraperitoneal.
The subject of assay [12] is Mus musculus. Kind of assay: The percent increase in life span on P388 cells which were inoculated intraperitoneally in CD2F1 mice at 100 mg/kg dose placed at ranking order 2. It counts as functional. The note with it: P388, ip, route intraperitoneal.
Assay [13] relates to Mus musculus. Kind of assay: The percent increase in life span on P388 cells which were inoculated intraperitoneally in CD2F1 mice at 200 mg/kg dose placed at ranking order 2. The note with it: P388, ip, route intraperitoneal. It counts as functional.
In assay [14] the test system is Mus musculus. Kind of assay: The percent increase in life span on P388 cells which were inoculated intraperitoneally in CD2F1 mice at 400 mg/kg (tested in the same control) dose placed at ranking order 4. It counts as functional. The note with it: P388, ip, route intraperitoneal.
Assay [15] relates to Mus musculus. Kind of assay: The percent increase in life span on P388 cells which were inoculated intraperitoneally in CD2F1 mice at 400 mg/kg dose placed at ranking order 1. It counts as functional. Particulars: P388, ip, route intraperitoneal.
The test system of assay [16] is Mus musculus. Kind of assay: In vivo antitumor activity against the B16 melanoma cell sarcoma expressed as percent increase in life span; IA means inactive. It counts as functional, organism-based.
Assay [17] concerns Mus musculus. Kind of assay: In vivo antitumor activity against the L1210 leukemia cell line expressed as percent increase in life span at 200 mg/kg dose. The class given is functional. Particulars: for ILS: dose 200 mg/kg.
Assay [18] has as its system Mus musculus. Kind of assay: The percent increase in life span on P388 cells which were inoculated intraperitoneally in CD2F1 mice at 400 mg/kg dose placed at ranking order 3. It counts as functional. The note with it: P388, ip, route intraperitoneal.
Assay [19] relates to Mus musculus. Kind of assay: The percent increase in life span on P388 cells which were inoculated intraperitoneally in CD2F1 mice at 240 mg/kg dose placed at ranking order 2. The class given is functional. Particulars: P388, ip, route intraperitoneal.
Assay [20] relates to Mus musculus. Kind of assay: The percent increase in life span on P388 cells which were inoculated intraperitoneally in CD2F1 mice at 480 mg/kg dose placed at ranking order 1. The class given is functional. Particulars: P388, ip, route intraperitoneal.
Assay [21] deals with Mus musculus. Kind of assay: The percent increase in life span on P388 cells which were inoculated intraperitoneally in CD2F1 mice at 50 mg/kg dose placed at ranking order 3. It counts as functional. The note with it: P388, ip, route intraperitoneal.
Assay [22] relates to Mus musculus. Kind of assay: The percent increase in life span on P388 cells which were inoculated intraperitoneally in CD2F1 mice at 5 mg/kg dose placed at ranking order 1. It counts as functional. The note with it: P388, ip, route intraperitoneal.
In assay [23] the test system is Mus musculus. Kind of assay: The percent increase in life span on P388 cells which were inoculated intraperitoneally in CD2F1 mice at 200 mg/kg dose placed at ranking order 1. It counts as functional. Particulars: P388, ip, route intraperitoneal.
Assay [24] concerns Mus musculus. Kind of assay: The percent increase in life span on P388 cells which were inoculated intraperitoneally in CD2F1 mice at 200 mg/kg dose placed at ranking order 3. It counts as functional. Particulars: P388, ip, route intraperitoneal.
The subject of assay [25] is Mus musculus. Kind of assay: The percent increase in life span on P388 cells which were inoculated intraperitoneally in CD2F1 mice at 300 mg/kg dose placed at ranking order 4. It counts as functional. Particulars: P388, ip, route intraperitoneal.
Assay [26] has as its system Mus musculus. Kind of assay: In vivo antitumor activity against the B16 melanoma cell line expressed as percent increase in life span at 100 mg/kg dose. It counts as functional.
Assay [27] has as its system Mus musculus. Kind of assay: In vivo antitumor activity against the B16 melanoma cell line expressed as percent increase in life span at 200 mg/kg dose. The class given is functional.
The test system of assay [28] is Mus musculus. Kind of assay: In vivo antitumor activity against the M5076 reticulum cell sarcoma expressed as percent increase in life span at 500 mg/kg dose. The class given is functional.
Assay [29] has as its system Mus musculus. Kind of assay: The percent increase in life span on P388 cells which were inoculated intraperitoneally in CD2F1 mice at 400 mg/kg dose placed at ranking order 2. It counts as functional. The note with it: P388, ip, route intraperitoneal.
Assay [30] is described as follows: Ability to inhibit the dibutyryl-cAMP-induced change of an immature glioma cell to a mature, differentiated astrocyte by in vitro astrocytoma assay at 100 ug/mL dose (Experiment #1); value may range from 16 to 30. It counts as functional, Mus musculus.
Assay [31] can be described thus: Ability to inhibit the dibutyryl-cAMP-induced change of an immature glioma cell to a mature, differentiated astrocyte by in vitro astrocytoma assay at 100 ug/mL dose (Experiment #2); value may range from 16 to 30. The class given is functional, Mus musculus.
Assay [32] in a line: Ability to inhibit the dibutyryl-cAMP-induced change of an immature glioma cell to a mature, differentiated astrocyte by in vitro astrocytoma assay at 10 ug/mL dose (Experiment #1); value may range from 6 to 15. It counts as functional, Mus musculus.
Assay [33] is described as follows: Ability to inhibit the dibutyryl-cAMP-induced change of an immature glioma cell to a mature, differentiated astrocyte by in vitro astrocytoma assay at 10 ug/mL dose (Experiment #2); value may range from 0 to 5. The class given is functional, Mus musculus.
Assay [34] is described as follows: Ability to inhibit the dibutyryl-cAMP-induced change of an immature glioma cell to a mature, differentiated astrocyte by in vitro astrocytoma assay at 1 ug/mL dose (Experiment #1); value may range from 0 to 5. The class given is functional, Mus musculus.
For assay [35], the system named is Mus musculus. Kind of assay: The percent increase in life span on P388 cells which were inoculated intraperitoneally in CD2F1 mice at 100 mg/kg dose placed at ranking order 4. It counts as functional. The note with it: P388, ip, route intraperitoneal.
The nature of assay [36]: Ability to inhibit the dibutyryl-cAMP-induced change of an immature glioma cell to a mature, differentiated astrocyte by in vitro astrocytoma assay at 1 ug/mL dose (Experiment #2); value may range from 0 to 5. The class given is functional, Mus musculus.

Several values for one entry are separate records, joined by “and”; a condition that tells them apart may be missing. Identical values can stand only once. Activity calls are given as the source filed them. No cut-off for these calls is given here.

`CCOc1cc2c(cc1C(C)c1ccc(OC)cc1)OCO2` (stereo unspecified): the Astrocyte reversal is 91% in assay [1]; 90% in assay [2]; 50% in [3]; 50% in [4]; 30% in assay [5]; 30% in [6]. For the same compound, the ILS entry in the assay on Mus musculus [7], in the assay with Mus musculus [8] and in the assay with Mus musculus [9] was “inactive” in each case. In the assay on Mus musculus [10], this compound returned an increase in lifespan (ILS) of 25%. In addition, the increase in lifespan (ILS) at 100 mg/kg in the assay on Mus musculus [11] is 25%; with Mus musculus [12], 23%.

Consider `COc1cc(C(C)c2cc3c(cc2OCCO)OCO3)cc(OC)c1OC` (stereo unspecified), for which the ILS at 200 mg/kg in the assay with Mus musculus [13] was found to be 66%; in the assay on Mus musculus [17] (Mus musculus, L1210, dose 200 mg/kg), 43%. In addition, the ILS at 400 mg/kg turned out to be 49% in the assay with Mus musculus [14], 80% in the assay on Mus musculus [15] and 61% with Mus musculus [18]. The ILS entry in the assay on Mus musculus [16] and with Mus musculus [8] was “inactive” throughout. Also, the ILS in the assay with Mus musculus [17] stood at 33%; with Mus musculus [10], 80%.

`CCOc1cc2c(cc1C(C)(C)c1ccc(OC)cc1)OCO2`: in the assay with Mus musculus [19], the ILS at 240 mg/kg came to 25%. Further, the ILS at 480 mg/kg in the assay with Mus musculus [20] stood at 35%. Further, in the assay on Mus musculus [10], the increase in life span (ILS) came out at 35%.

`CCOc1ccc(C(C)c2cc3c(cc2OCC)OCO3)cc1` (stereo unspecified) yielded an increase in lifespan (ILS) at 200 mg/kg in the assay on Mus musculus [13] of 56%. The increase in lifespan (ILS) at 50 mg/kg with Mus musculus [21] amounted to 36%. This compound registered an increase in lifespan (ILS) at 5 mg/kg in the assay on Mus musculus [22] of 71%. Also, in the assay on Mus musculus [10], the increase in life span (ILS) worked out at 71%.

In the case of `CCOc1ccc(C(C)c2cc3c(cc2OC)OCO3)cc1` (stereo unspecified), the ILS at 200 mg/kg in the assay with Mus musculus [23] came out at 78%; in the assay with Mus musculus [24], 56%; in the assay with Mus musculus [27], 42%. Also, the ILS at 300 mg/kg with Mus musculus [25] stood at 31%. In the assay on Mus musculus [26], the ILS at 100 mg/kg came out at 29%. In addition, the increase in lifespan (ILS) in the assay with Mus musculus [17] is 50% and 24%; in the assay with Mus musculus [28], 49% and 27%; with Mus musculus [10] it was 78%. The same compound showed an increase in lifespan (ILS) at 400 mg/kg with Mus musculus [29] of 61%.

With `COc1ccc(C(C)c2cc3c(cc2OC)OCO3)cc1` (stereo unspecified), the Astrocyte reversal in assay [30] was found to be 30%; in [31] it was 30%; in assay [32] it was 15%; in assay [33], 5%; in assay [34], 5%; in assay [36] it was 5%. The ILS at 100 mg/kg stood at 53% with Mus musculus [35], 78% with Mus musculus [11] and 76% in the assay on Mus musculus [12]. In the assay on Mus musculus [24], the ILS at 200 mg/kg was 74%. Besides, the ILS entry with Mus musculus [7], with Mus musculus [8] and with Mus musculus [9] was “inactive” each time. In addition, the ILS in the assay on Mus musculus [10] turned out to be 78%.
